Assay: excess molar enthalpy (molar enthalpy of mixing); xn = mol fraction of the nth substance listed
Settings: 101 kPa, Liquid, Flow calorimetry

CCOC(C)(C)C [2-ethoxy-2-methylpropane] + C1CCCCC1
excess molar enthalpy [kcal/mol]
Settings | 298.15 K | 313.15 K
x1 = 0.0505 | 0.0121 | –
x1 = 0.0506 | – | 0.0114
x1 = 0.1 | 0.0236 | –
x1 = 0.1001 | – | 0.0219
x1 = 0.1508 | 0.0343 | –
x1 = 0.1509 | – | 0.0326
x1 = 0.2005 | 0.0433 | –
x1 = 0.2006 | – | 0.0417
x1 = 0.2514 | 0.0519 | –
x1 = 0.2515 | – | 0.05
x1 = 0.3011 | 0.059 | –
x1 = 0.3012 | – | 0.0562
x1 = 0.3519 | 0.0652 | 0.0624
x1 = 0.4014 | 0.0703 | –
x1 = 0.4015 | – | 0.0675
x1 = 0.4519 | 0.0741 | –
x1 = 0.452 | – | 0.0704
x1 = 0.5012 | 0.0761 | 0.0729
x1 = 0.5513 | 0.0773 | 0.0736
x1 = 0.6021 | 0.0764 | 0.0731
x1 = 0.6516 | 0.0739 | –
x1 = 0.6517 | – | 0.0708
x1 = 0.7017 | 0.0701 | –
x1 = 0.7019 | – | 0.0669
x1 = 0.7507 | 0.0643 | –
x1 = 0.7508 | – | 0.0616
x1 = 0.8002 | 0.0564 | 0.0535
x1 = 0.85 | – | 0.0439
x1 = 0.8501 | 0.0464 | –
x1 = 0.9003 | 0.0339 | 0.0321
x1 = 0.9508 | 0.0182 | 0.0174
x1 = 1 | 0 | 0

CCOC(C)(C)C [2-ethoxy-2-methylpropane] + CCCCCCC
excess molar enthalpy [kcal/mol]
Settings | 298.15 K | 313.15 K
x1 = 0.0511 | – | 0.0101
x1 = 0.0512 | 0.0109 | –
x1 = 0.1007 | 0.0212 | –
x1 = 0.1504 | 0.0293 | –
x1 = 0.1507 | – | 0.0288
x1 = 0.2003 | 0.0387 | –
x1 = 0.2008 | – | 0.037
x1 = 0.2509 | 0.0449 | –
x1 = 0.2511 | – | 0.0453
x1 = 0.3016 | 0.0512 | –
x1 = 0.3019 | – | 0.0507
x1 = 0.3505 | 0.057 | –
x1 = 0.351 | – | 0.055
x1 = 0.4019 | 0.0606 | –
x1 = 0.4024 | – | 0.0587
x1 = 0.4515 | 0.0647 | –
x1 = 0.4518 | – | 0.0601
x1 = 0.5014 | 0.0658 | –
x1 = 0.5017 | – | 0.0605
x1 = 0.5516 | 0.0651 | –
x1 = 0.5519 | – | 0.0598
x1 = 0.6022 | 0.0636 | –
x1 = 0.6024 | – | 0.0586
x1 = 0.6509 | 0.0608 | –
x1 = 0.6511 | – | 0.0558
x1 = 0.7019 | 0.0558 | –
x1 = 0.7022 | – | 0.0521
x1 = 0.7512 | 0.0501 | –
x1 = 0.7515 | – | 0.0465
x1 = 0.8008 | 0.0433 | –
x1 = 0.801 | – | 0.04
x1 = 0.8507 | 0.0349 | –
x1 = 0.8509 | – | 0.0321
x1 = 0.9009 | 0.0243 | –
x1 = 0.901 | – | 0.0225
x1 = 0.9492 | 0.0132 | –
x1 = 0.9493 | – | 0.0122
x1 = 1 | 0 | 0

CCOC(C)(C)C [2-ethoxy-2-methylpropane] + Cc1ccccc1
excess molar enthalpy [kcal/mol]
Settings | 298.15 K | 313.15 K
x1 = 0.0248 | -0.000932 | –
x1 = 0.0491 | -0.00174 | –
x1 = 0.0499 | – | -0.000793
x1 = 0.0739 | -0.00261 | –
x1 = 0.0997 | – | -0.00129
x1 = 0.1003 | -0.00356 | –
x1 = 0.1498 | -0.00507 | –
x1 = 0.151 | – | -0.00222
x1 = 0.1991 | -0.00657 | –
x1 = 0.2004 | – | -0.00298
x1 = 0.2489 | -0.00774 | –
x1 = 0.2511 | – | -0.00405
x1 = 0.2993 | -0.00887 | –
x1 = 0.2998 | – | -0.00479
x1 = 0.3499 | – | -0.00517
x1 = 0.3513 | -0.00968 | –
x1 = 0.3987 | -0.0103 | –
x1 = 0.4011 | – | -0.00591
x1 = 0.4495 | -0.0108 | –
x1 = 0.45 | – | -0.00608
x1 = 0.5003 | – | -0.0065
x1 = 0.5019 | -0.011 | –
x1 = 0.5499 | – | -0.00634
x1 = 0.5515 | -0.0109 | –
x1 = 0.599 | -0.0108 | –
x1 = 0.6007 | – | -0.00599
x1 = 0.6491 | -0.0102 | –
x1 = 0.6506 | – | -0.00587
x1 = 0.6996 | – | -0.00548
x1 = 0.7014 | -0.00946 | –
x1 = 0.7495 | -0.00832 | –
x1 = 0.7498 | – | -0.00491
x1 = 0.801 | -0.007 | –
x1 = 0.8013 | – | -0.00411
x1 = 0.8492 | – | -0.00341
x1 = 0.8514 | -0.00531 | –
x1 = 0.9006 | -0.00361 | –
x1 = 0.9008 | – | -0.0024
x1 = 0.951 | -0.00172 | –
x1 = 0.9511 | – | -0.00144
x1 = 1 | 0 | 0

COC(C)(C)C [2-methoxy-2-methylpropane] + CCCCCC
298.15 K
Settings | excess molar enthalpy [kcal/mol]
x1 = 0.0504 | 0.0172
x1 = 0.1002 | 0.0319
x1 = 0.1497 | 0.045
x1 = 0.2008 | 0.0567
x1 = 0.2491 | 0.0658
x1 = 0.2994 | 0.0739
x1 = 0.3486 | 0.0805
x1 = 0.4002 | 0.0856
x1 = 0.4484 | 0.0883
x1 = 0.4997 | 0.0894
x1 = 0.5493 | 0.0885
x1 = 0.6006 | 0.0858
x1 = 0.6496 | 0.0815
x1 = 0.7001 | 0.0749
x1 = 0.75 | 0.0671
x1 = 0.7992 | 0.0569
x1 = 0.8501 | 0.0452
x1 = 0.9007 | 0.0316
x1 = 0.9506 | 0.0169
x1 = 1 | 0

COC(C)(C)C [2-methoxy-2-methylpropane] + CCCO
298.15 K
Settings | excess molar enthalpy [kcal/mol]
x1 = 0.0491 | 0.0148
x1 = 0.0997 | 0.0314
x1 = 0.1503 | 0.0481
x1 = 0.1976 | 0.0632
x1 = 0.2472 | 0.0781
x1 = 0.2965 | 0.0915
x1 = 0.3477 | 0.105
x1 = 0.4008 | 0.116
x1 = 0.4468 | 0.124
x1 = 0.4982 | 0.131
x1 = 0.5486 | 0.136
x1 = 0.5974 | 0.138
x1 = 0.6485 | 0.136
x1 = 0.6977 | 0.133
x1 = 0.7491 | 0.126
x1 = 0.7985 | 0.114
x1 = 0.8494 | 0.0963
x1 = 0.8986 | 0.0737
x1 = 0.9498 | 0.0413
x1 = 1 | 0

C1CCCCC1 [cyclohexane] + CCCCCC
298.15 K
Settings | excess molar enthalpy [kcal/mol]
x1 = 0.074 | 0.0116
x1 = 0.1463 | 0.0217
x1 = 0.219 | 0.0302
x1 = 0.2876 | 0.0377
x1 = 0.3542 | 0.0438
x1 = 0.4193 | 0.0482
x1 = 0.4832 | 0.0512
x1 = 0.5476 | 0.0524
x1 = 0.6085 | 0.0525
x1 = 0.6675 | 0.051
x1 = 0.7255 | 0.0476
x1 = 0.7839 | 0.0426
x1 = 0.8395 | 0.0353
x1 = 0.8935 | 0.026
x1 = 0.9482 | 0.014
x1 = 1 | 0

C1CCCCC1 [cyclohexane] + CCOC(C)(C)C
x2 = 0
Settings | excess molar enthalpy [kcal/mol]
298.15 K | 0
313.15 K | 0

C1CCCCC1 [cyclohexane] + Cc1ccccc1
excess molar enthalpy [kcal/mol]
Settings | 298.15 K | 313.15 K
x1 = 0.0491 | – | 0.0248
x1 = 0.0492 | 0.0263 | –
x1 = 0.1003 | – | 0.0482
x1 = 0.1004 | 0.051 | –
x1 = 0.1496 | – | 0.0686
x1 = 0.1497 | 0.0728 | –
x1 = 0.199 | – | 0.0861
x1 = 0.1991 | 0.091 | –
x1 = 0.2485 | – | 0.101
x1 = 0.2486 | 0.108 | –
x1 = 0.298 | – | 0.115
x1 = 0.2981 | 0.121 | –
x1 = 0.3477 | – | 0.125
x1 = 0.3479 | 0.132 | –
x1 = 0.3974 | – | 0.134
x1 = 0.3976 | 0.141 | –
x1 = 0.4493 | 0.147 | 0.139
x1 = 0.4992 | 0.149 | 0.142
x1 = 0.5493 | 0.149 | 0.142
x1 = 0.5974 | – | 0.139
x1 = 0.5975 | 0.147 | –
x1 = 0.6476 | – | 0.134
x1 = 0.6478 | 0.141 | –
x1 = 0.6979 | – | 0.125
x1 = 0.6981 | 0.131 | –
x1 = 0.7483 | – | 0.113
x1 = 0.7485 | 0.118 | –
x1 = 0.7989 | – | 0.0978
x1 = 0.799 | 0.103 | –
x1 = 0.8496 | 0.0828 | 0.0788
x1 = 0.9003 | 0.0585 | 0.0562
x1 = 0.9491 | 0.0319 | 0.0304
x1 = 1 | 0 | 0

CCCCCCC [heptane] + CCOC(C)(C)C
x2 = 0
Settings | excess molar enthalpy [kcal/mol]
298.15 K | 0
313.15 K | 0

CCCCCCC [heptane] + Cc1ccccc1
x1 = 1
Settings | excess molar enthalpy [kcal/mol]
298.15 K | 0
313.15 K | 0

CCCCCC [hexane] + C1CCCCC1
Settings | excess molar enthalpy [kcal/mol]
298.15 K, x2 = 0 | 0

CCCCCC [hexane] + COC(C)(C)C
Settings | excess molar enthalpy [kcal/mol]
298.15 K, x2 = 0 | 0

CCCO [propan-1-ol] + COC(C)(C)C
Settings | excess molar enthalpy [kcal/mol]
298.15 K, x2 = 0 | 0

Cc1ccccc1 [toluene] + C1CCCCC1
x2 = 0
Settings | excess molar enthalpy [kcal/mol]
298.15 K | 0
313.15 K | 0

Cc1ccccc1 [toluene] + CCCCCCC
excess molar enthalpy [kcal/mol]
Settings | 298.15 K | 313.15 K
x2 = 0 | 0 | 0
x2 = 0.0502 | 0.0295 | 0.0284
x2 = 0.1008 | 0.0551 | 0.053
x2 = 0.1501 | 0.0761 | 0.0732
x2 = 0.1995 | 0.094 | 0.09
x2 = 0.2507 | – | 0.104
x2 = 0.2508 | 0.108 | –
x2 = 0.3002 | 0.119 | 0.114
x2 = 0.3495 | 0.127 | –
x2 = 0.3496 | – | 0.121
x2 = 0.4005 | 0.131 | –
x2 = 0.4006 | – | 0.126
x2 = 0.4494 | 0.134 | –
x2 = 0.4497 | – | 0.128
x2 = 0.4999 | 0.133 | 0.128
x2 = 0.55 | 0.13 | 0.125
x2 = 0.5995 | 0.125 | 0.119
x2 = 0.6505 | 0.116 | –
x2 = 0.6506 | – | 0.111
x2 = 0.7009 | 0.106 | 0.102
x2 = 0.7504 | 0.0935 | –
x2 = 0.7505 | – | 0.0899
x2 = 0.799 | 0.0797 | 0.0763
x2 = 0.849 | 0.0631 | 0.0599
x2 = 0.9005 | 0.0431 | 0.0416
x2 = 0.9509 | 0.0221 | 0.0212

Cc1ccccc1 [toluene] + CCOC(C)(C)C
x2 = 0
Settings | excess molar enthalpy [kcal/mol]
298.15 K | 0
313.15 K | 0
